{
  "source": "paper PMC11219871",
  "about": "“Epigenetic-based differentiation therapy for Acute Myeloid Leukemia” (Nature Communications, 2024)",
  "key": {"DNMT1": {"target": "DNMT1 (Homo sapiens, UniProt P26358)", "sequence (P26358 whole entry)": "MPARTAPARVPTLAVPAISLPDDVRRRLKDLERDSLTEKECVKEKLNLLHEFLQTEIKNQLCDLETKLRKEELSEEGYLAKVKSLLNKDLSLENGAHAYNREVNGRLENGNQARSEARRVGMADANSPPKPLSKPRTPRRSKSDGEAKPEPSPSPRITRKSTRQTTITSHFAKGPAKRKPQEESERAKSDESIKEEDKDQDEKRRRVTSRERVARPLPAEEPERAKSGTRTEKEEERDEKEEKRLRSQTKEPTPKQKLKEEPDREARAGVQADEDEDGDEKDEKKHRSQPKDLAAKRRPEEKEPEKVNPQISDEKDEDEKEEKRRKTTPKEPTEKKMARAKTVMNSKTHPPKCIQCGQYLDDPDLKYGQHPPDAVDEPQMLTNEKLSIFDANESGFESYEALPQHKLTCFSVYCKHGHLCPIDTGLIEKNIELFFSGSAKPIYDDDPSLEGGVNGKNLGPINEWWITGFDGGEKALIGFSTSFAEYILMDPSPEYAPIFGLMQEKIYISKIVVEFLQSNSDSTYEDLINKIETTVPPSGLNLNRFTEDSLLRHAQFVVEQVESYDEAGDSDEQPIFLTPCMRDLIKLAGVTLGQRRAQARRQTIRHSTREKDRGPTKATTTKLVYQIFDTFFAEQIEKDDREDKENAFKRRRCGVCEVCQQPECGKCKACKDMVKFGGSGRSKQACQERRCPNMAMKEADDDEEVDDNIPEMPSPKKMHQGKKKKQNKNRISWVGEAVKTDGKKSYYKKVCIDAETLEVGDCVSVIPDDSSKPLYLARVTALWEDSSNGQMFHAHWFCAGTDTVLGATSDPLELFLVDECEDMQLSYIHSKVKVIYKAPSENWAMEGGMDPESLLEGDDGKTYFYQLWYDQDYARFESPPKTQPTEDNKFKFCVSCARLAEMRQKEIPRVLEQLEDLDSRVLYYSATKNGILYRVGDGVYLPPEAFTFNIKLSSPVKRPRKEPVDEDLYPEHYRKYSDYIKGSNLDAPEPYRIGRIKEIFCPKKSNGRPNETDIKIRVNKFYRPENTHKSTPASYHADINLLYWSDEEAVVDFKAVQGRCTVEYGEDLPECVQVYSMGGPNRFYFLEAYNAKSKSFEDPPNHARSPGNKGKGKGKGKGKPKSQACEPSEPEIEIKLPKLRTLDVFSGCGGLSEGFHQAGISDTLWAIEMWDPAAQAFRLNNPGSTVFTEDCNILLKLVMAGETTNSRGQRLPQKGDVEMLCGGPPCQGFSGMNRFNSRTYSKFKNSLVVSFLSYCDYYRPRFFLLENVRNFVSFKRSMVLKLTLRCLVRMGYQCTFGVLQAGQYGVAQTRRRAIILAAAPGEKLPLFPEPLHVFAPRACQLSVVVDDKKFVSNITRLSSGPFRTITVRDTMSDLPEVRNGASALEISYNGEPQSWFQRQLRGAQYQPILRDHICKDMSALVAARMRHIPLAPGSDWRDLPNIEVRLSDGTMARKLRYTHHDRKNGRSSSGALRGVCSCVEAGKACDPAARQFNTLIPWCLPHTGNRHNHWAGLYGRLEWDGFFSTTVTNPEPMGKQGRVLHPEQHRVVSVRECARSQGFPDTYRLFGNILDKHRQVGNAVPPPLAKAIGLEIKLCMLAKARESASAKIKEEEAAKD", "test": "Epigenetic panel (BPS Bioscience); DNMT1 TR-FRET IC50", "format": "biochemical", "protocol": "DNMT1 and G9a IC50 values were measured using time-resolved fluorescence energy transfer assays, as described previously[18],[25],[26].\nBinding experiments were performed in duplicate at a concentration of 10 μM."}, "HDAC2": {"target": "HDAC2 (Homo sapiens, UniProt Q92769)", "sequence (Q92769 whole entry)": "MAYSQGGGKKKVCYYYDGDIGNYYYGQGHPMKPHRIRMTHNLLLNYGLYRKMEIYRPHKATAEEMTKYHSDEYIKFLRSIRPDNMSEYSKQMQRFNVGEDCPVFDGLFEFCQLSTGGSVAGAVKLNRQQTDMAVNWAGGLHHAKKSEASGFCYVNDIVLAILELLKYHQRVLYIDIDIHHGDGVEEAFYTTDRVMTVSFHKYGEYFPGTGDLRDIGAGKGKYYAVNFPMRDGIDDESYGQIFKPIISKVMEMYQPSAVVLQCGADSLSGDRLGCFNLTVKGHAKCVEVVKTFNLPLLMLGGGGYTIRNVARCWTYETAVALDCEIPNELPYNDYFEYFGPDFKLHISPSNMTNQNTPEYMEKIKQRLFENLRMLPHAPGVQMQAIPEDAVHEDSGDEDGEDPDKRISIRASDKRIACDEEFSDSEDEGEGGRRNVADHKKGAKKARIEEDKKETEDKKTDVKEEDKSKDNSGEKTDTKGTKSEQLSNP", "test": "HDAC enzymatic assay, fluorescence-labeled substrate", "format": "biochemical"}, "HDAC11": {"target": "T1, HDAC11 (Homo sapiens, UniProt Q96DB2)", "T1 sequence (Q96DB2 1-347)": "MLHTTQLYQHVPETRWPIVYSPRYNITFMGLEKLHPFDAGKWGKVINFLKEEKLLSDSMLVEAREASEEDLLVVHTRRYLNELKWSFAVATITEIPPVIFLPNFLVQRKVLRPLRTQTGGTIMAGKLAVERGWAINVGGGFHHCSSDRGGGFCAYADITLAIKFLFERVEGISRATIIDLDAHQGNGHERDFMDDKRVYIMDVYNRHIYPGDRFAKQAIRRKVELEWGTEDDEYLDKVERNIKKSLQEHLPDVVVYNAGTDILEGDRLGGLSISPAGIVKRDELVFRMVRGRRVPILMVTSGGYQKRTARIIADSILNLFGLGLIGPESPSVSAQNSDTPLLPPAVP", "test": "HDAC11 Eurofins assay", "format": "biochemical"}, "Rag2-/-γc-/- mice": {"system": "Rag2-/-γc-/- mice", "test": "Toxicity assay: hematological and liver parameters, liver histology", "format": "in vivo, mouse", "conditions": "for ALT (Counts (U/L)) / AST (Counts (U/L)) / Bilirubin (Counts (mg/dl)) / HDL (Counts (mmol/l)) / LCLC3 (Counts (mmol/l)) / UREA (Counts (mg/dl)) / Hematocrit (Counts (%)) / Hemoglobin (Counts (g/dl)) / PLT (Counts (K/O)) / RBC (Counts (K/O)) / WBC (Counts (K/O)): healthy Rag2-/-γc-/- mice, individual mice, 10 mg/kg; for ALT (Counts (U/L)) / AST (Counts (U/L)) / Bilirubin (Counts (mg/dl)) / HDL (Counts (mmol/l)) / LCLC3 (Counts (mmol/l)) / UREA (Counts (mg/dl)): 10 mg/kg i.p. daily for 3 weeks then 7-day washout; for Hematocrit (Counts (%)) / Hemoglobin (Counts (g/dl)) / PLT (Counts (K/O)) / RBC (Counts (K/O)) / WBC (Counts (K/O)): 10 mg/kg i.p. daily for 3 weeks", "protocol": "After treating Rag2^−/−γc^−/− mice with i.p. […] Hematological and liver parameters were measured.\nHematological parameters, including white blood cells, red blood cells, platelet count, hemoglobin and hematocrit, were measured on a Hemavet Hematology Analyzer (Drew Scientific). Liver enzymes (albumin, alkaline phosphatase, aspartate transaminase, alanine transaminase), cholesterol, bilirubin, urea and bile acid levels were analyzed from mice serum using a C311 Cobas Analyzer (Roche Diagnostics).\nMice livers were fixed in paraformaldehyde at 4% for 6–8 h, washed twice with saline solution and stored in 70% ethanol. Samples were included in paraffin, and 3-µm serial sections were cut, deparaffinated, and stained with hematoxylin–eosin."}, "[1]": {"system": "MOLM-13 i.v. in BALB/cA Rag2-/-γc-/- mice", "test": "Intravenous xenograft model (survival, CD11b in blood, body weight)", "format": "in vivo, mouse"}},
  "note": "Values joined by “and” are separate entries in the source; they are usually repeats but may differ in a detail not shown here. Equal entries are not always repeated.",
  "data": [
    {"smiles": "COc1cc2nc(-c3cc(C)oc3C)cc(NCC3CCN(c4ncc(C(=O)NO)cn4)CC3)c2cc1OC", "note": "[CM-1758, 2-[4-[[[2-(2,5-dimethyl-3-furyl)-6,7-dimethoxy-4-quinolyl]amino]methyl] -1-piperidyl]pyrimidine-5-carbohydroxamic acid]", "values": [
      {"measurement": "inhibition at 10 µM", "setting": "DNMT1; 10 µM", "value": 66, "unit": "%"},
      {"measurement": "IC50", "setting": "DNMT1; read-out: DNMT1 IC50", "value": 22600, "unit": "nM"},
      {"measurement": "IC50", "setting": "HDAC2", "value": 31, "unit": "nM"},
      {"measurement": "inhibition at 10 µM", "setting": "HDAC2; 10 µM, source data of Fig. 1B", "value": 90, "unit": "%"},
      {"measurement": "IC50", "setting": "HDAC11", "value": 150, "unit": "nM"},
      {"measurement": "tolerability", "setting": "Rag2-/-γc-/- mice; 10 mg/kg i.p. daily over 3 weeks, 1-week washout, Rag2-/-γc-/- mice", "value": "well tolerated"},
      {"measurement": "ALT (Counts (U/L))", "setting": "Rag2-/-γc-/- mice; Week 3", "value": "17 U/L and 4.5 U/L and 5.5 U/L and 9 U/L"},
      {"measurement": "AST (Counts (U/L))", "setting": "Rag2-/-γc-/- mice; Week 3", "value": "148.5 U/L and 43 U/L and 38.5 U/L and 74 U/L"},
      {"measurement": "Bilirubin (Counts (mg/dl))", "setting": "Rag2-/-γc-/- mice; Week 3", "value": "0 mg/dl (2×) and 0.05 mg/dl (2×)"},
      {"measurement": "HDL (Counts (mmol/l))", "setting": "Rag2-/-γc-/- mice; Week 3", "value": "3.2 mmol/L and 2.05 mmol/L and 0.6 mmol/L and 2.55 mmol/L"},
      {"measurement": "LCLC3 (Counts (mmol/l))", "setting": "Rag2-/-γc-/- mice; Week 3", "value": "0.2 mmol/l (2×) and 0.1 mmol/l (2×)"},
      {"measurement": "UREA (Counts (mg/dl))", "setting": "Rag2-/-γc-/- mice; Week 3", "value": "20.7 mg/dL and 26.4 mg/dL and 33.1 mg/dL and 24.1 mg/dL"},
      {"measurement": "ALT (Counts (U/L))", "setting": "Rag2-/-γc-/- mice; Week 4", "value": "14.1 U/L and 27 U/L and 21.9 U/L and 7.5 U/L"},
      {"measurement": "AST (Counts (U/L))", "setting": "Rag2-/-γc-/- mice; Week 4", "value": "46.8 U/L and 244.8 U/L and 155.7 U/L and 62.1 U/L"},
      {"measurement": "Bilirubin (Counts (mg/dl))", "setting": "Rag2-/-γc-/- mice; Week 4", "value": "0 mg/dL and 0.06 mg/dL and 0.12 mg/dL and 0.03 mg/dL"},
      {"measurement": "HDL (Counts (mmol/l))", "setting": "Rag2-/-γc-/- mice; Week 4", "value": "2.61 mmol/L and 2.43 mmol/L and 2.31 mmol/L and 2.37 mmol/L"},
      {"measurement": "LCLC3 (Counts (mmol/l))", "setting": "Rag2-/-γc-/- mice; Week 4", "value": "0.21 mmol/l (3×) and 0.27 mmol/l"},
      {"measurement": "UREA (Counts (mg/dl))", "setting": "Rag2-/-γc-/- mice; Week 4", "value": "26.61 mg/dl and 26.58 mg/dl (2×) and 31.89 mg/dl"},
      {"measurement": "Hematocrit (Counts (%))", "setting": "Rag2-/-γc-/- mice; 7d Washout", "value": "51% and 54.2% and 45.9% and 52.8%"},
      {"measurement": "Hemoglobin (Counts (g/dl))", "setting": "Rag2-/-γc-/- mice; 7d Washout", "value": "17.7 g/dL and 17.6 g/dL and 16.1 g/dL and 17.4 g/dL"},
      {"measurement": "PLT (Counts (K/O))", "setting": "Rag2-/-γc-/- mice; 7d Washout", "value": "1572 K/O and 1571 K/O and 1050 K/O and 1405 K/O"},
      {"measurement": "RBC (Counts (K/O))", "setting": "Rag2-/-γc-/- mice; 7d Washout", "value": "9.8 K/O and 10.2 K/O and 8.86 K/O and 10.25 K/O"},
      {"measurement": "WBC (Counts (K/O))", "setting": "Rag2-/-γc-/- mice; 7d Washout", "value": "1.4 K/O and 1.52 K/O and 3.74 K/O and 2.44 K/O"},
      {"measurement": "Hematocrit (Counts (%))", "setting": "Rag2-/-γc-/- mice; Week 1", "value": "48.1% and 47% and 47.7% and 46.6%"},
      {"measurement": "Hemoglobin (Counts (g/dl))", "setting": "Rag2-/-γc-/- mice; Week 1", "value": "17.8 g/dL and 17.5 g/dL and 18 g/dL and 17.7 g/dL"},
      {"measurement": "PLT (Counts (K/O))", "setting": "Rag2-/-γc-/- mice; Week 1", "value": "866 K/O and 806 K/O and 880 K/O and 983 K/O"},
      {"measurement": "RBC (Counts (K/O))", "setting": "Rag2-/-γc-/- mice; Week 1", "value": "9.36 K/O and 9.79 K/O and 10.18 K/O (2×)"},
      {"measurement": "WBC (Counts (K/O))", "setting": "Rag2-/-γc-/- mice; Week 1", "value": "1.68 K/O and 1.52 K/O and 1.6 K/O and 1.16 K/O"},
      {"measurement": "Hematocrit (Counts (%))", "setting": "Rag2-/-γc-/- mice; Week 2", "value": "51.3% and 48.5% and 45.7% and 50.4%"},
      {"measurement": "Hemoglobin (Counts (g/dl))", "setting": "Rag2-/-γc-/- mice; Week 2", "value": "18.2 g/dL and 18 g/dL and 17.2 g/dL and 17.7 g/dL"},
      {"measurement": "PLT (Counts (K/O))", "setting": "Rag2-/-γc-/- mice; Week 2", "value": "1496 K/O and 1628 K/O and 1531 K/O and 1908 K/O"},
      {"measurement": "RBC (Counts (K/O))", "setting": "Rag2-/-γc-/- mice; Week 2", "value": "10.07 K/O and 9.97 K/O and 9.38 K/O and 10.01 K/O"},
      {"measurement": "WBC (Counts (K/O))", "setting": "Rag2-/-γc-/- mice; Week 2", "value": "10.02 K/O and 4.3 K/O and 5.26 K/O and 5.18 K/O"},
      {"measurement": "Hematocrit (Counts (%))", "setting": "Rag2-/-γc-/- mice; Week 3", "value": "47.2% and 36.5% and 46.9% and 44.2%"},
      {"measurement": "Hemoglobin (Counts (g/dl))", "setting": "Rag2-/-γc-/- mice; Week 3", "value": "17.4 g/dL and 13.4 g/dL and 17.3 g/dL and 16.8 g/dL"},
      {"measurement": "PLT (Counts (K/O))", "setting": "Rag2-/-γc-/- mice; Week 3", "value": "870 K/O and 786 K/O and 1040 K/O and 1436 K/O"},
      {"measurement": "RBC (Counts (K/O))", "setting": "Rag2-/-γc-/- mice; Week 3", "value": "9.53 K/O and 7.63 K/O and 9.68 K/O and 9.71 K/O"},
      {"measurement": "WBC (Counts (K/O))", "setting": "Rag2-/-γc-/- mice; Week 3", "value": "3.3 K/O and 2.28 K/O and 4.16 K/O and 1.16 K/O"},
      {"measurement": "CD11b in blood samples", "setting": "[1]; MOLM-13 i.v., 10 mg/kg i.p.", "value": "significant induction of CD11b"},
      {"measurement": "CD11b (%)", "setting": "[1]; blood samples of mice engrafted intravenously with MOLM-13 cells, individual mice", "value": "43.5% and 62.1% and 13.7% and 9.45% and 29.6% and 36.3% and 8.98% and 17.9% and 35.4% and 52.9% and 49.9%"}
    ]}
  ]
}
